These results are taken from the OPERA property sets (Mansouri et al. 2018).

A word on the logP: it is a log measure of how a compound divides between an organic and an aqueous phase. One may read the solubility as the concentration that dissolves in the medium under given conditions.

Values after ≈ are worked out from the molar mass of the structure shown.

The molecule `COc1ccc2c3c1O[C@H]1[C@@H](O)C=C[C@H]4[C@@H](C2)NCC[C@@]341` yielded a logP of 0.69.

With `Nc1cc2ccccc2cc1N`, the logP is 1.54.

In the case of `NC(=O)CC[C@H](N)C(=O)O`, the logP was -3.64. Still for that read-out and setting: the result for `CCSCCn1cnc2c(=N)n(C)c(=O)[nH]c21` reads 0; that for `CC(=O)Oc1ccc(CC(N)C(=O)O)cc1` (stereo not given), -1.33. Still for that read-out and setting: the result for `CSc1ccc(C=C(C#N)C#N)o1` reads 2.45; that for `CCCCCCCOC(=O)c1ccc(N)cc1`, 4.5. The same measure, in the same setting: the result for `CSc1nc(N=[N+]=[N-])nc(NC(C)C)n1` reads 3. As for `CCCN(C)N=O`, the logP came out at 0.56. On the same count and under the same terms, the result for `N=C(N)NN=C(c1ccccc1)c1cccs1` reads 1.96; that for `CC(=O)N[C@@H](Cc1ccc(O)cc1)C(=O)O`, 1.32.

As for `CCCCCCCC`, the logP amounted to 5.18.

In turn, `N=C(N)NN=Cc1ccc(Cl)cc1` displayed a log partition coefficient (logP) of 0.96.

Turning to `Brc1ccc(O[Si]23OCCN(CCO2)CCO3)cc1`, the logP came out at 0.58.

As to `C=CCN1CCC(CNC(=O)c2cc3nn[nH]c3cc2OC)C1` (stereo not given), the lipophilicity (logP) was found to be 0.95.

In turn, `ClCc1ccc(Cl)cc1` showed a logP of 3.18. The same measure, in the same setting: the result for `Sc1nc2ccccc2s1` reads 2.42; that for `Nc1ccc2c(c1)Cc1cc([N+](=O)[O-])ccc1-2`, 3.06. Regarding `CCO[C@H]1O[C@@H]2OC3(C)CC[C@H]4[C@H](C)CC[C@@H]([C@H]1C)[C@@]24OO3`, the lipophilicity (logP) was found to be 3.89. `Cc1nc2ccc([N+](=O)[O-])cc2[nH]1` registered a logP of 1.94. The same measure, in the same setting: the result for `O=C(O)c1c(C(=O)O)c(C(=O)O)c(C(=O)O)c(C(=O)O)c1C(=O)O` reads 1.5. On the same count and under the same terms, the result for `COc1cccc(Nc2ccccc2C(=O)O)c1` reads 4.31.

On to `Brc1cc2oc3cc(Br)c(Br)cc3c2cc1Br`, for which the logP turned out to be 6.1 and the solubility came to 0.000145 mM (≈ 7e-05 mg/mL). For the molecule `CN(C(=O)C(Cl)Cl)c1ccc(O)cc1`, the logP amounted to 1.78. Same read-out and setting: the result for `CC(=O)OCn1ncc2c(O)ncnc21` reads -0.35. The same measure, in the same setting: the result for `c1ccc2c(c1)Cc1cccnc1-2` reads 2.96; that for `CNc1nc(C)nc(C(Cl)(Cl)Cl)n1`, 2.43.

In turn, `COc1c(O)cc(C)c(O)c1OC` gave a log partition coefficient (logP) of 1.05.

`C=CCOc1ccccc1OCC(CNC(C)C)OC(=O)C=CC` (stereo not given) showed a logP of 3.65. `Clc1ccc(Nc2cc3nc4ccccc4n(-c4ccc(Cl)cc4)c-3cc2=NCC2CCNCC2)cc1` displayed a logP of 6.44.

In the case of `CNC(=O)CCc1ccccc1`, the logP amounted to 1.17.

With `CCn1c2ccccc2c2ccccc21`, the logP was determined as 4.49.

With `O=C(Nc1ccc(Cl)cc1)c1cccc([N+](=O)[O-])c1O`, the logP came out at 2.16. `COP(=S)(OC)Oc1ccc(SC)cc1` registered a log partition coefficient (logP) of 3.74. Same read-out and setting: the result for `O=C(O)CCCCn1nc2ccccc2n1` reads 0.94. On to `CC(O)(C(=O)O)c1ccccc1` (stereo not given), for which the logP was 0.8. Take `CCCOc1ccc([N+](=O)[O-])cc1NC(C)=O`: the logP was 1.6. As to `NC(=O)c1ccccc1NCC(O)CO` (stereo not given), the logP was -0.8. Turning to `CC(C)COCC(C)C`, the log partition coefficient (logP) stood at 2.78. Still for that read-out and setting: the result for `CC(CCC(=O)NCC(=O)O)C1CCC2C3C(O)CC4CC(O)CCC4(C)C3CCC12C` (stereo not given) reads 2.12; that for `CC1CCCC(C)C1O` (stereo not given), 2.1. For the molecule `CCC(=O)CC`, the solubility was determined as 558 mM (≈ 48.1 mg/mL). `C[Si]1(C)O[Si](C)(C)O[Si](C)(C)O[Si](C)(C)O[Si](C)(C)O[Si](C)(C)O1` registered a logP of 9.06. The same measure, in the same setting: the result for `CC(C)(O)C(=O)Nc1ccc([N+](=O)[O-])cc1` reads 1.61; that for `CC(C)(O)C(=O)Nc1ccc([N+](=O)[O-])c(C(F)(F)F)c1`, 2.7.

`COc1cc(Cl)c(Cl)cc1Cl` returned a log partition coefficient (logP) of 3.85. In turn, `CN1C(=O)CC[C@H]1c1cccnc1` returned a logP of 0.07.

The molecule `Cc1cc(Cc2ccc(Cl)cc2Cl)c(Cl)cc1Cl` showed a logP of 7.43. In turn, `CC(=O)CCC(C)C` showed a logP of 1.88. Still for that read-out and setting: the result for `CC(NC(CCc1ccccc1)C(=O)O)C(=O)N1C(C(=O)O)CC2CCCC21` (stereo not given) reads 0.22. Still for that read-out and setting: the result for `CC(=O)OCN1C(=O)NC(c2ccccc2)(c2ccccc2)C1=O` reads 2.23; that for `COc1nc(C)nc(=NC(O)=NS(=O)(=O)c2ccccc2C(=O)O)[nH]1`, 1.7.

Consider `O=[N+]([O-])c1c(Cl)cc(Cl)cc1Cl`, for which the log partition coefficient (logP) came to 3.69.

With `COc1c(Cl)c(Cl)cc(Cl)c1Cl`, the logP turned out to be 4.68.

With `COc1ccc(C(=O)CCCC(=O)O)cc1Cl`, the logP is 2.17. Still for that read-out and setting: the result for `CCC(O)(C(=O)O)c1ccc(CC(C)C)cc1` (stereo not given) reads 3.37; that for `CN1CC(C(=O)O)CC1=O` (stereo not given), -1.5. For the molecule `CCCCCCCCOC(=O)c1ccc(N)cc1`, the logP was determined as 5.02. Still for that read-out and setting: the result for `CC(C)C1(C)N=C(c2nc3ccccc3cc2C(=O)O)NC1=O` (stereo not given) reads 1.86; that for `CCCCC[C@H](O)/C=C/[C@H]1[C@H](O)CC(=O)[C@@H]1CCCCCCC(=O)O`, 3.2.

`OCC(S)CS` (stereo not given) displayed a solubility of 700 mM (≈ 87 mg/mL).

As to `CC1=NS(=O)(=O)c2cccnc2N1`, the logP was -0.25. The molecule `COCc1ccc(COC)cc1` registered a logP of 1.28. Same read-out and setting: the result for `O=C(O)CCOc1cccc2ccccc12` reads 3.
